In patent US20230322846A9, “NEUROACTIVE STEROIDS AND THEIR METHODS OF USE” (SAGE THERAPEUTICS, INC., priority 2018, published 2023):

The molecules below were run against [35S]-TBPS binding, rat brain cortical membranes (assay: Steroid inhibition of [35S]-TBPS binding). Details: 3 nM [35S]-TBPS, in the presence of 5 mM GABA.
Procedure, shortened: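 In the presence of […], compounds (DMSO 0.5% final) competed with 3 nM [35S]-TBPS for Sprague-Dawley rat cortical membranes, pH 7.4 phosphate buffer, 90 min, room temperature. Filtration and scintillation counting; specific binding defined by […]; IC50 and maximal inhibition fitted per experiment, averaged as mean ± SEM.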

First: CCOC[C@@]1(O)CC[C@H]2[C@H](CC[C@@H]3[C@@H]2CC[C@]2(C)[C@@H]([C@@H](C)Cc4cccc(C#N)c4)CC[C@@H]32)C1 [Example 402, 3-((S)-2-((3R,5R,8R,9R,10S,13R,14S,17R)-3-(ethoxymethyl)-3-hydroxy-13-methylhexadecahydro-1H-cyclopenta[a]phenanthren-17-yl)propyl)benzonitrile]
Second: CCOC[C@@]1(O)CC[C@H]2[C@H](CC[C@@H]3[C@@H]2CC[C@]2(C)[C@@H]([C@H](C)Cc4cccc(C#N)c4)CC[C@@H]32)C1 [Example 403, 3-((R)-2-((3R,5R,8R,9R,10S,13R,14S,17R)-3-(ethoxymethyl)-3-hydroxy-13-methylhexadecahydro-1H-cyclopenta[a]phenanthren-17-yl)propyl)benzonitrile]
The IC50 of the first is lower: under 100 nM for the first, 100 to 1000 nM for the second.

First: COC[C@@]1(O)CC[C@H]2[C@H](CC[C@@H]3[C@@H]2CC[C@]2(C)[C@@H]([C@@H](C)Cc4ccc(C#N)nc4)CC[C@@H]32)C1 [Example 404, 5-((S)-2-((3R,5R,8R,9R,10S,13R,14S,17R)-3-hydroxy-3-(methoxymethyl)-13-methylhexadecahydro-1H-cyclopenta[a]phenanthren-17-yl)propyl)picolinonitrile]
Second: COC[C@@]1(O)CC[C@H]2[C@H](CC[C@@H]3[C@@H]2CC[C@]2(C)[C@@H]([C@H](C)Cc4ccc(C(F)(F)F)nc4)CC[C@@H]32)C1 [Example 421]
The IC50 of the first is lower: under 100 nM for the first, 100 to 1000 nM for the second. The first is the more potent here.

First: CCC[C@@]1(O)CC[C@H]2[C@H](CC[C@@H]3[C@@H]2CC[C@]2(C)[C@@H]([C@@H](C)Cc4ccc(C(F)(F)F)nc4)CC[C@@H]32)C1 [Example 410]
Second: CCC[C@@]1(O)CC[C@H]2[C@H](CC[C@@H]3[C@@H]2CC[C@]2(C)[C@@H]([C@H](C)Cc4ccc(C(F)(F)F)nc4)CC[C@@H]32)C1 [Example 411]
The IC50 of the first is higher: 100 to 1000 nM for the first, under 100 nM for the second. The second is the more potent here.

First: CCOC[C@@]1(O)CC[C@H]2[C@H](CC[C@@H]3[C@@H]2CC[C@]2(C)[C@@H]([C@H](C)Cc4cccc(C#N)n4)CC[C@@H]32)C1 [Example 412]
Second: CCOC[C@@]1(O)CC[C@H]2[C@H](CC[C@@H]3[C@@H]2CC[C@]2(C)[C@@H]([C@@H](C)Cc4ccc(C)nc4C#N)CC[C@@H]32)C1 [Example 414]
The IC50 of the first is higher: 100 to 1000 nM for the first, under 100 nM for the second.

`CCOC[C@@]1(O)CC[C@H]2[C@H](CC[C@@H]3[C@@H]2CC[C@]2(C)[C@@H]([C@H](C)Cc4ccc(C)nc4C#N)CC[C@@H]32)C1` [Example 415] and `COC[C@@]1(O)CC[C@H]2[C@H](CC[C@@H]3[C@@H]2CC[C@]2(C)[C@@H]([C@@H](C)Cc4nc(C)ccc4Cl)CC[C@@H]32)C1` [Example 424] cannot be ordered by IC50: under 100 nM for the first, under 100 nM for the second.

First: CCC[C@@]1(O)CC[C@H]2[C@H](CC[C@@H]3[C@@H]2CC[C@]2(C)[C@@H]([C@H](C)Cc4cnc(C)cn4)CC[C@@H]32)C1 [Example 418]
Second: COC[C@@]1(O)CC[C@H]2[C@H](CC[C@@H]3[C@@H]2CC[C@]2(C)[C@@H]([C@@H](C)Cc4cnc(C)cn4)CC[C@@H]32)C1 [Example 422]
The IC50 of the first is higher: 1000 to 10000 nM for the first, under 100 nM for the second.

First: COC[C@@]1(O)CC[C@H]2[C@H](CC[C@@H]3[C@@H]2CC[C@]2(C)[C@@H]([C@H](C)Cc4cnc(C)cn4)CC[C@@H]32)C1 [Example 423]
Second: Cc1cnc(C[C@@H](C)[C@H]2CC[C@H]3[C@@H]4CC[C@@H]5C[C@](C)(O)CC[C@@H]5[C@H]4CC[C@]23C)cn1 [Example 440]
The IC50 of the first is higher: 100 to 1000 nM for the first, under 100 nM for the second.

Compared with `COC[C@@]1(O)CC[C@H]2[C@H](CC[C@@H]3[C@@H]2CC[C@]2(C)[C@@H]([C@H](C)Cc4nc(C)ccc4Cl)CC[C@@H]32)C1` [Example 425], `Cc1cnc(C[C@H](C)[C@H]2CC[C@H]3[C@@H]4CC[C@@H]5C[C@](C)(O)CC[C@@H]5[C@H]4CC[C@]23C)nc1` [Example 437] is lower in IC50: 1000 to 10000 nM for the first, under 100 nM for the second.

First: C[C@H](Cc1ccc(C(F)(F)F)nc1)[C@H]1CC[C@H]2[C@@H]3CC[C@@H]4C[C@](C)(O)CC[C@]4(C)[C@H]3CC[C@]12C [Example 426]
Second: C[C@@H](Cc1ccc(C(F)(F)F)nc1)[C@H]1CC[C@H]2[C@@H]3CC[C@@H]4C[C@](C)(O)CC[C@]4(C)[C@H]3CC[C@]12C [Example 427]
The IC50 of the first is higher: 100 to 1000 nM for the first, under 100 nM for the second.

`C[C@@H](Cc1ncc(CO)s1)[C@H]1CC[C@H]2[C@@H]3CC[C@@H]4C[C@](C)(O)CC[C@@H]4[C@H]3CC[C@]12C` [Example 428] and `C[C@H](Cc1ncc(CO)s1)[C@H]1CC[C@H]2[C@@H]3CC[C@@H]4C[C@](C)(O)CC[C@@H]4[C@H]3CC[C@]12C` [Example 429] cannot be ordered by IC50: under 100 nM for the first, under 100 nM for the second.

`Cc1cnc(C[C@@H](C)[C@H]2CC[C@H]3[C@@H]4CC[C@@H]5C[C@](C)(O)CC[C@@H]5[C@H]4CC[C@]23C)s1` [Example 431] and `Cc1cc(C[C@@H](C)[C@H]2CC[C@H]3[C@@H]4CC[C@@H]5C[C@](C)(O)CC[C@@H]5[C@H]4CC[C@]23C)sn1` [Example 451] fall in the same range of IC50: 100 to 1000 nM for the first, 100 to 1000 nM for the second.

`COc1cncc(C[C@H](C)[C@H]2CC[C@H]3[C@@H]4CC[C@@H]5C[C@](C)(O)CC[C@@H]5[C@H]4CC[C@]23C)c1` [Example 432] and `COc1cncc(C[C@@H](C)[C@H]2CC[C@H]3[C@@H]4CC[C@@H]5C[C@](C)(O)CC[C@@H]5[C@H]4CC[C@]23C)c1` [Example 433] cannot be ordered by IC50: under 100 nM for the first, under 100 nM for the second.

First: Cc1cncc(C[C@@H](C)[C@H]2CC[C@H]3[C@@H]4CC[C@@H]5C[C@](C)(O)CC[C@@H]5[C@H]4CC[C@]23C)c1 [Example 434]
Second: Cc1cncc(C[C@H](C)[C@H]2CC[C@H]3[C@@H]4CC[C@@H]5C[C@](C)(O)CC[C@@H]5[C@H]4CC[C@]23C)n1 [Example 441]
The IC50 of the first is higher: 100 to 1000 nM for the first, under 100 nM for the second.

First: C[C@@H](Cc1nccc(C#N)n1)[C@H]1CC[C@H]2[C@@H]3CC[C@@H]4C[C@](C)(O)CC[C@@H]4[C@H]3CC[C@]12C [Example 435]
Second: Cc1cncc(C[C@@H](C)[C@H]2CC[C@H]3[C@@H]4CC[C@@H]5C[C@](C)(O)CC[C@@H]5[C@H]4CC[C@]23C)n1 [Example 442]
The IC50 of the first is lower: under 100 nM for the first, 100 to 1000 nM for the second.

First: C[C@H](Cc1ccc(C(F)(F)F)nc1)[C@H]1CC[C@H]2[C@@H]3CC[C@@H]4C[C@](C)(O)CC[C@@H]4[C@H]3CC[C@]12C [Example 444]
Second: C[C@@H](Cc1nc(C(F)(F)F)cs1)[C@H]1CC[C@H]2[C@@H]3CC[C@@H]4C[C@](C)(O)CC[C@@H]4[C@H]3CC[C@]12C [Example 449]
The IC50 of the first is higher: 100 to 1000 nM for the first, under 100 nM for the second.

Work on `C[C@H](Cc1nc(C(F)(F)F)cs1)[C@H]1CC[C@H]2[C@@H]3CC[C@@H]4C[C@](C)(O)CC[C@@H]4[C@H]3CC[C@]12C` [Example 450] yielded an IC50 of 100 to 1000 nM.
